From patent publication US20130252930A1 (BIOMARIN PHARMACEUTICAL INC., priority 2010, published 2013) come the findings set out here.

One test deals with T1, CYP17 (human testicular microsome) (Homo sapiens, UniProt P05093).
T1 construct: using microsomal fraction from human testis (Celsis Cat #S00110) as the enzyme source; tissue Celsis S00110; host or cells: human testis microsomal fraction
T1 sequence (P05093 1-508): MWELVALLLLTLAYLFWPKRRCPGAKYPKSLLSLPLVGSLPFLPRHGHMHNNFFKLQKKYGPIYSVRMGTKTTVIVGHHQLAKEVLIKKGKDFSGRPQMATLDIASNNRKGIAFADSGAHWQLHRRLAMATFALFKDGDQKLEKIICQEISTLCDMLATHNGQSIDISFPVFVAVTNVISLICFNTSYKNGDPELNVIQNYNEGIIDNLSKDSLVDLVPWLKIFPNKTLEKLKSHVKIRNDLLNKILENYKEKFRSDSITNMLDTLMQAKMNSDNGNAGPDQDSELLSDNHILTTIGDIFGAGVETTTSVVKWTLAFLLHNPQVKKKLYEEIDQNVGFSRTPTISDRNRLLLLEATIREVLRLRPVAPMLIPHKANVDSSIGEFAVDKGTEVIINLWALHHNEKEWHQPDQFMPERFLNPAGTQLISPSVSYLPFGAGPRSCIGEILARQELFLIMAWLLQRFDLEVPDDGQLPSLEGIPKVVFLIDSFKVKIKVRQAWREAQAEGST
Description: CYP17 enzymatic assay (% inhibition at 1 nM) (Biological Example 12). Format: biochemical. The conditions noted are these: compound at 1 nM.
Take `C[C@]12CCNC(=O)CC1CCC1C2CC[C@]2(C)C(c3cncc(F)c3)=CCC12` (stereo partly drawn) [Compound 481, (5aS,7aS)-8-(5-fluoropyridin-3-yl)-5a,7a-dimethyl-4,5,5a,5b,6,7,7a,10,10a,10b,11,12,12a-tetradecahydrocyclopenta[5,6]naphtho[1,2-d]azepin-2(1H)-one]: the “Biological Example No. 12: CYP17 enzymatic assay % inhibition at 1 nM” value is on record as “N (N means the compound had a percent inhibition of greater than or equal to 10% but less than 50%)”.

Staying with this test, now noted: compound at 1 nM, read-out: Biological Example No. 12: CYP17 enzymatic assay % inhibition at 1 nM.
In general, inhibition refers to how much of the control response was suppressed. For the compound `C[C@]12CCC3(CO3)CC1CCC1C2CC[C@]2(C)C(c3cccnc3)=CCC12` (stereo partly drawn) [Compound 475, 3-((10S,13S)-10,13-dimethyl-1,2,4,5,6,7,8,9,10,11,12,13,14,15-tetradecahydrospiro[cyclopenta[a]phenanthrene-3,2′-oxiran]-17-yl)pyridine], the inhibition at 0.001 µM is 10 to 50%.
As for `C[C@]12CCC3(CCC(=O)O3)CC1CCC1C2CC[C@]2(C)C(c3cccnc3)=CCC12` (stereo partly drawn) [Compound 477, (10S,13S)-10,13-dimethyl-17-(pyridin-3-yl)-1,2,4,5,6,7,8,9,10,11,12,13,14,15-tetradecahydro-3′H-spiro[cyclopenta[a]phenanthrene-3,2′-furan]-5′(4′H)-one], the inhibition at 0.001 µM was less than 10%.
Regarding `CCNC(=O)N[C@@H]1CC[C@@]2(C)C(=CCC3C2CC[C@]2(C)C(c4cncc(F)c4)=CCC32)C1` (stereo partly drawn) [Compound 478, 1-ethyl-3-((3R,10R,13S)-17-(5-fluoropyridin-3-yl)-10,13-dimethyl-2,3,4,7,8,9,10,11,12,13,14,15-dodecahydro-1H-cyclopenta[a]phenanthren-3-yl)urea], the inhibition at 0.001 µM was in the range of 10 to 50%.

Still in this test, the particulars now being: compound at 1 nM, read-out: CYP17 enzymatic assay % inhibition at 1 nM (Biological Example No. 12).
`COc1cncc(C2=CC[C@H]3[C@@H]4CC[C@H]5C[C@@H](OC)CC[C@]5(C)[C@H]4CC[C@]23C)c1` [Compound 456, 3-methoxy-5-((3S,5S,8R,9S,10S,13S,14S)-3-methoxy-10,13-dimethyl-2,3,4,5,6,7,8,9,10,11,12,13,14,15-tetradecahydro-1H-cyclopenta[a]phenanthren-17-yl)pyridine]: the inhibition at 0.001 µM was in the range of 10 to 50%.
Same read-out and setting: the result for `CCOc1cncc(C2=CC[C@H]3[C@@H]4CC[C@H]5C[C@@H](OC)CC[C@]5(C)[C@H]4CC[C@]23C)c1` [Compound 457, 3-ethoxy-5-((3S,5S,8R,9S,10S,13S,14S)-3-methoxy-10,13-dimethyl-2,3,4,5,6,7,8,9,10,11,12,13,14,15-tetradecahydro-1H-cyclopenta[a]phenanthren-17-yl)pyridine] reads 10 to 50%.
Same read-out and setting: for `CO[C@H]1CC[C@@]2(C)[C@@H](CC[C@@H]3[C@@H]2CC[C@]2(C)C(c4cnccc4C)=CC[C@@H]32)C1` [Compound 458, 3-((3S,5S,8R,9S,10S,13S,14S)-3-methoxy-10,13-dimethyl-2,3,4,5,6,7,8,9,10,11,12,13,14,15-tetradecahydro-1H-cyclopenta[a]phenanthren-17-yl)-4-methylpyridine] the value was 10 to 50%; for `CO[C@H]1CC[C@@]2(C)C(=CCC3C2CC[C@]2(C)C(n4ccnc4)=CCC32)C1` (stereo partly drawn) [Compound 459, 1-((3S,10R,13S)-3-methoxy-10,13-dimethyl-2,3,4,7,8,9,10,11,12,13,14,15-dodecahydro-1H-cyclopenta[a]phenanthren-17-yl)-1H-imidazole], 10 to 50%; for `Cc1cncc(C2=CC=C3[C@@H]4CCC5CNC(=O)CC[C@]5(C)[C@H]4CC[C@]23C)c1` (stereo partly drawn) [Compound 461, (5aR,5bS,7aS,10bR)-5a,7a-dimethyl-8-(5-methylpyridin-3-yl)-1,2,5,5a,5b,6,7,7a,10b,11,12,12a-dodecahydrocyclopenta[5,6]naphtho[2,1-c]azepin-3(4H)-one], 10 to 50%.
Same read-out and setting: the result for `Cc1ccncc1C1=CC=C2C3CCC4CC(=O)NCC[C@]4(C)C3CC[C@]12C` (stereo partly drawn) [Compound 463, (5aS,7aS)-5a,7a-dimethyl-8-(4-methylpyridin-3-yl)-3,4,5,5a,5b,6,7,7a,10b,11,12,12a-dodecahydrocyclopenta[5,6]naphtho[1,2-d]azepin-2(1H)-one] reads 10 to 50%.
In the case of `Cc1ccncc1C1=CC=C2C3CCC4CNC(=O)CC[C@]4(C)C3CC[C@]12C` (stereo partly drawn) [Compound 464, (5aR,7aS)-5a,7a-dimethyl-8-(4-methylpyridin-3-yl)-1,2,5,5a,5b,6,7,7a,10b,11,12,12a-dodecahydrocyclopenta[5,6]naphtho[2,1-c]azepin-3(4H)-one], the inhibition at 0.001 µM was in the range of 10 to 50%.
Same read-out and setting: for `CCc1ccncc1C1=CC=C2C3CCC4C[C@@H](O)CC[C@]4(C)C3CC[C@]12C` (stereo partly drawn) [Compound 465, (3S,10S,13S)-17-(4-ethylpyridin-3-yl)-10,13-dimethyl-2,3,4,5,6,7,8,9,10,11,12,13-dodecahydro-1H-cyclopenta[a]phenanthren-3-ol] the value was less than 10%; for `CC(=O)O[C@H]1CC[C@@]2(C)C(CCC3C4=CC=C(c5cnccc5C)[C@@]4(C)CCC32)C1` (stereo partly drawn) [Compound 466, (3S,10S,13S)-10,13-dimethyl-17-(4-methylpyridin-3-yl)-2,3,4,5,6,7,8,9,10,11,12,13-dodecahydro-1H-cyclopenta[a]phenanthren-3-yl acetate], 10 to 50%; for `CCc1ccncc1C1=CC=C2C3CCC4CC(=O)NCC[C@]4(C)C3CC[C@]12C` (stereo partly drawn) [Compound 467, (5aS,7aS)-8-(4-ethylpyridin-3-yl)-5a,7a-dimethyl-3,4,5,5a,5b,6,7,7a,10b,11,12,12a-dodecahydrocyclopenta[5,6]naphtho[1,2-d]azepin-2(1H)-one], 10 to 50%.
The same measure, in the same setting: the result for `CCc1ccncc1C1=CC=C2C3CCC4CNC(=O)CC[C@]4(C)C3CC[C@]12C` (stereo partly drawn) [Compound 468, (5aR,7aS)-8-(4-ethylpyridin-3-yl)-5a,7a-dimethyl-1,2,5,5a,5b,6,7,7a,10b,11,12,12a-dodecahydrocyclopenta[5,6]naphtho[2,1-c]azepin-3(4H)-one] reads 10 to 50%.
Same read-out and setting: the result for `CCc1ccncc1C1=CC[C@H]2[C@@H]3CC[C@H]4CC(=O)NCC[C@]4(C)[C@H]3CC[C@]12C` [Compound 469, (5aS,5bS,7aS,10aS,10bR,12aS)-8-(4-ethylpyridin-3-yl)-5a,7a-dimethyl-3,4,5,5a,5b,6,7,7a,10,10a,10b,11,12,12a-tetradecahydrocyclopenta[5,6]naphtho[1,2-d]azepin-2(1H)-one] reads 10 to 50%; that for `CCc1ccncc1C1=CC[C@H]2[C@@H]3CC[C@H]4CNC(=O)CC[C@]4(C)[C@H]3CC[C@]12C` [Compound 470, (5aR,5bS,7aS,10aS,10bR,12aR)-8-(4-ethylpyridin-3-yl)-5a,7a-dimethyl-1,2,5,5a,5b,6,7,7a,10,10a,10b,11,12,12a-tetradecahydrocyclopenta[5,6]naphtho[2,1-c]azepin-3(4H)-one], less than 10%.
In the case of `C[C@]12CC[C@H](O)CC1CCC1C2CC[C@]2(C)C(c3ccc[n+]([O-])c3)CCC12` (stereo partly drawn) [Compound 472, 3-((3S,10S,13S)-3-hydroxy-10,13-dimethylhexadecahydro-1H-cyclopenta[a]phenanthren-17-yl)pyridine 1-oxide], the inhibition at 0.001 µM is 10 to 50%.
On the same count and under the same terms, the result for `C[C@]12CC[C@H](O)CC1CCC1C2CC[C@]2(C)C(c3cccnc3)CCC12` (stereo partly drawn) [Compound 473, (3S,10S,13S)-10,13-dimethyl-17-(pyridin-3-yl)hexadecahydro-1H-cyclopenta[a]phenanthren-3-ol] reads less than 10%.
